Values quoted from earlier work in patent US8124123B2, “Controlled release azithromycin solid dosages forms” (Dow Pharmaceutical Sciences, Inc., priority 2007, dated 2012).

Columns and labels:
[1] = oral administration; reported with single 1000 mg dose and 1500 mg over 5 days

Structure (SMILES): CC[C@H]1OC(=O)[C@H](C)[C@@H](O[C@H]2C[C@@](C)(OC)[C@@H](O)[C@H](C)O2)[C@H](C)[C@@H](O[C@@H]2O[C@H](C)C[C@H](N(C)C)[C@H]2O)[C@](C)(O)C[C@@H](C)CN(C)[C@H](C)[C@@H](O)[C@]1(C)O [azithromycin, 9-deoxo-9a-aza-9a-methyl-9a-homoerythromycin A]
- gastrointestinal side effects [1]: dose-related incidence of gastrointestinal side effects
- fraction of azithromycin released into the stomach that may be destroyed (about one hour in the stomach, low pH environment): approximately one third
- chemical stability at pH 1 (pH found in stomach contents following a meal): chemically unstable
